Measured values taken from patent US8598184B2, “Protein kinase inhibitors” (Tiger Pharmatech, priority 2008, dated 2013).
“And” between values parts separate entries of the source, which are not always exact repeats. Identical values can stand only once. Like-named read-outs stand apart in the source and are kept apart here.

Key:
[1] = In vivo pharmacokinetics study in rats, intravenous and oral administration; parameters: species or system male Sprague Dawley rats
Experimental: The compounds of the present invention were formulated as a solution in a 30:70 (PEG 400:acidified H2O) vehicle. This solution was administered orally (p.o.) at 10 mg/kg and intravenously (i.v.) at 2.5 mg/kg to two distinct groups (n=3) of male Sprague Dawley rats (body weight of 220-250 g). The animals used in the oral dosing group were fasted for 12 hrs before the drug administration. The blood samples were collected via retro-orbital puncture at 0 hour (pre-dose), 0.083, 0.25, 0.5, 1, 2, 4, 6, 8, and 24 hours post-dose. The blood plasma was isolated and HPLC was performed to determine the concentration of the test compounds in blood plasma. Standard set of pharmacokinetic parameters including Area Under the Curves (AUC's), elimination half-lives and bioavailabilities etc. were calculated using FDA certified pharmacokinetic program WinNonlin Professional v5.2 (Pharsight, USA).
The bioavailability was calculated as F (%)=(Doseiv×AUCoral(0-∞))/(Doseoral×AUCiv(0-∞))100%. The plasma concentration-time curve of example 5 in male rats following intravenous and oral administration was shown in FIG. 1. Selected pharmacokinetics parameters of example 5 in male rats following intravenous and oral administration were listed in Table 2.

[2] = system: U87MG glioblastoma tumor xenograft; details: for tumor growth inhibition: Day 12, vs vehicle-treated controls
Experimental: The U87MG glioblastoma cell line (obtained from Institute of Biochemistry and Cell Biology, Shanghai Institutes for Biological Sciences) expresses the c-Met receptor and responds to […] (HGF). […] The study utilized a tumor growth inhibition (TGI) assay to test per os (p.o.) compound monotherapy in groups of eight nude mice. A control group was treated with a 30:70 (PEG 400:acidified H2O) vehicle. All treatments began on Day 1 (D1) in mice bearing established subcutaneous (s.c.) U87MG tumors.
Female athymic nude mice (BALB/cA, Shanghai Laboratories Animal Center, Shanghai, China) were 7-8 weeks old with a body weight range of 19-21 g at the beginning of the study. Food and water were available ad libitum throughout the study. Mice were housed in SPF (Specific Pathogen Free) area of Medicilon/MPI animal facility. Environmental control for the animal room was set to maintain a temperature of 18-25° C., humidity of 30-70%, and a 12-hour light/12-hour dark cycle. Animals had previously been acclimated to study procedures prior to initial dose administration. Animals to be used on test were selected based on overall health and acclimation to caging.
U-87 MG human glioblastoma cells were purchased from Institute of Biochemistry and Cell Biology, Shanghai Institutes for Biological Sciences. The cells were maintained in vitro Eagle's Minimum Essential Medium supplemented with 10% heat inactivated fetal calf serum. Cells were cultured at 37° C. in an atmosphere of 5% CO2 in air and routinely sub-cultured twice weekly by trypsin-EDTA treatment. Cells in an exponential growth phase were harvested and counted for tumor inoculation. Each test mouse was subcutaneously inoculated with 1×10^7 U87-MG tumor cells in 0.1 ml medium at the right flank of the mouse for tumor model development. During the experiment, the implanted tumors were measured by external caliper every other day in a blind fashion. Nine days later, on Day 1 of the study, mice with well-established tumors (about 150 mm^3) were randomly assigned into 4 groups (n=8 mice/group). Tumor volume was calculated using the formula: Tumor Volume=w^2×l/2 where w=width and l=length in mm of the tumor. Tumor weight may be estimated with the assumption that 1 mg is equivalent to 1 mm^3 of tumor volume.
In all groups, the dosing volume of 0.2 mL/20 g mouse was scaled to the body weight of each animal
The MTV (n) is defined as the median tumor volume (MTV) for the number of animals, n, remaining in the study on that day. The Median Tumor Growth Volume=Median Tumor Volume−Median Tumor Volumeinitial.
Tumor growth was plotted as the median tumor volume, versus time, for each group in the study. The differences in the tumor size between the treatment groups and the vehicle group are analyzed for significance using the unpaired two-tailed Student's t-test. P<0.05 is considered to be statistically significant.

[3] = male rats, IV 2.5 mg/kg, individual animals R 1-R 3
[4] = male rats, PO 10 mg/kg, fasted, individual animals R 4-R 6
[5] = male, Sprague Dawley, rat, plasma, iv, 2.5 mg/kg, IV 2.5 mg/kg, individual animals R 1-R 3
[6] = male, Sprague Dawley, rat, plasma, iv, 2.5 mg/kg, IV 2.5 mg/kg, mean (n=3)
[7] = male, Sprague Dawley, rat, plasma, po, 10 mg/kg, PO 10 mg/kg, fasted, individual animals R 4-R 6
[8] = male, Sprague Dawley, rat, plasma, po, 10 mg/kg, PO 10 mg/kg, fasted, mean (n=3)

OCCn1cc(-c2ncc3nnn(Cc4ccc5ncccc5c4)c3n2)cn1 [Example 5, 2-(4-(3-(Quinolin-6-ylmethyl)-3H-[1,2,3]triazolo[4,5-d]pyrimidin-5-yl)-1H-pyrazol-1-yl)ethanol]
Tmax ([1]; Sprague Dawley, rat, plasma, male rats, IV 2.5 mg/kg, individual animals R 1-R 3): 0.08 h
Tmax ([1]; Sprague Dawley, rat, plasma, male rats, PO 10 mg/kg, fasted, individual animals R 4-R 6): 2 h
AUC(0-t) [1, 3]: 5472.46 ng·h/mL and 3451.75 ng·h/mL and 7274.77 ng·h/mL
AUC(0-∞) [1, 3]: 3741.58 ng·h/mL and 7310.08 ng·h/mL
Cmax [1, 3]: 2417.88 ng/mL and 3019.57 ng/mL
t1/2 [1, 3]: 2.59 h and 3.23 h
F % (bioavailability) ([1]; male rats, PO 10 mg/kg vs IV 2.5 mg/kg, individual animals R 4-R 6): 70.36% and 72.63%
AUC(0-t) [1, 4]: 15454.20 ng·h/mL and 15954.84 ng·h/mL
AUC(0-∞) [1, 4]: 15509.49 ng·h/mL and 16010.05 ng·h/mL
Cmax [1, 4]: 1505.63 ng/mL and 2299.65 ng/mL
t1/2 [1, 4]: 2.82 h and 2.98 h
AUC(0-inf) [1, 5]: 5480 ng·h/mL
half-life [1, 5]: 2.62 h
Cmax ([1]; male, Sprague Dawley, rat, plasma, iv, 2.5 mg/kg, IV 2.5 mg/kg, individual animals R 1-R 3, read-out: Cmax): 2700 ng/mL
AUC(0-inf) [1, 6]: 5510 ng·h/mL
half-life [1, 6]: 2.81 h
AUC(0-t) ([1]; male, Sprague Dawley, rat, plasma, iv, 2.5 mg/kg, IV 2.5 mg/kg, mean (n=3), read-out: AUC(0-t)): 5400 ng·h/mL
Cmax ([1]; male, Sprague Dawley, rat, plasma, iv, 2.5 mg/kg, IV 2.5 mg/kg, mean (n=3), read-out: Cmax): 2710 ng/mL
bioavailability ([1]; male, Sprague Dawley, rat, plasma, po, 10 mg/kg, PO 10 mg/kg vs IV 2.5 mg/kg, individual animals R 4-R 6, read-out: F % (bioavailability)): 79.4%
bioavailability ([1]; male, Sprague Dawley, rat, plasma, po, 10 mg/kg, PO 10 mg/kg vs IV 2.5 mg/kg, mean (n=3), read-out: F % (bioavailability)): 74.1%
AUC(0-inf) [1, 7]: 17500 ng·h/mL
half-life [1, 7]: 2.88 h
AUC(0-t) ([1]; male, Sprague Dawley, rat, plasma, po, 10 mg/kg, PO 10 mg/kg, fasted, individual animals R 4-R 6, read-out: AUC(0-t)): 17400 ng·h/mL
Cmax ([1]; male, Sprague Dawley, rat, plasma, po, 10 mg/kg, PO 10 mg/kg, fasted, individual animals R 4-R 6, read-out: Cmax): 2540 ng/mL
AUC(0-inf) [1, 8]: 16300 ng·h/mL
half-life [1, 8]: 2.89 h
AUC(0-t) ([1]; male, Sprague Dawley, rat, plasma, po, 10 mg/kg, PO 10 mg/kg, fasted, mean (n=3), read-out: AUC(0-t)): 16300 ng·h/mL
Cmax ([1]; male, Sprague Dawley, rat, plasma, po, 10 mg/kg, PO 10 mg/kg, fasted, mean (n=3), read-out: Cmax): 2110 ng/mL
tumor growth inhibition ([2]; 10 mg/kg p.o. once a day (q.d.)): 58%
tumor growth inhibition ([2]; 30 mg/kg p.o. twice a day (b.i.d.)): 70%
significance of tumor growth inhibition ([2]; 40 mg/kg (q.d.) and 30 mg/kg (b.i.d.), from Day 4, p<0.05): statistically significant tumor growth inhibition
tumor growth inhibition ([2]; 40 mg/kg p.o. once a day (q.d.)): 66%
significance of tumor growth inhibition ([2]; all doses (10, 40 mg/kg q.d., 30 mg/kg b.i.d.), from Day 6, p<0.05): statistically significant tumor growth inhibition
